From publication PMC9138994 (Biomolecules, 2022)
Several values for one entry are separate records, joined by “and”; a condition that tells them apart may be missing. Equal entries are not always repeated. Marks after values point to notes of the source that are not given here.

Tests used:
[1] = target: T1, human histamine H3 receptor (Homo sapiens, UniProt Q9Y5N1); experiment: Radioligand displacement assay at histamine H3 receptor ([3H]-Nα-methylhistamine, HEK293 membranes); format: binding; details: HEK293 cells stably expressing human H3R, read-out: Ki [CI 95%] (n), H3R
T1 construct: expressed in transfected cells; host or cells: HEK293
T1 sequence (Q9Y5N1 whole entry): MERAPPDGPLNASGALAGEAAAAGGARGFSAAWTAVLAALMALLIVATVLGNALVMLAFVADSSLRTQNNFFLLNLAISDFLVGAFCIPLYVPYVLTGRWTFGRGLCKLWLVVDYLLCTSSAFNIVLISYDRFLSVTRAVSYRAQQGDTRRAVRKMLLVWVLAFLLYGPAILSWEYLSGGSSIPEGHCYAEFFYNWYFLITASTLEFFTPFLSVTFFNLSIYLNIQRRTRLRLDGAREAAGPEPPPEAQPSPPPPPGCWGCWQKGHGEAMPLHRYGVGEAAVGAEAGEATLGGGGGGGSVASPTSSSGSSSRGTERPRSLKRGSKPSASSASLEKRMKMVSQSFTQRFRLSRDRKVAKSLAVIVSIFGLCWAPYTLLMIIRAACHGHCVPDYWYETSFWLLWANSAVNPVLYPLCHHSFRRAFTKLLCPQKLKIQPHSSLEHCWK
Protocol: Radioligand displacement assays were performed as described previously. HEK293 cells stably expressing the human histamine H3 receptor [37] were grown in Dulbecco’s modified Eagle’s medium, supplemented with 2 mM glutamine, 10 mM HEPES, 10% fetal bovine serum, and 10 μL/mL penicillin/streptomycin in an atmosphere of 5% CO2 at 37 °C. Cells were grown to confluence. The medium was removed, and cells were collected in 15 mL ice-cold phosphate-buffered saline (PBS) (140 mM NaCl, 3 mM KCl, 1.5 mM KH2PO4, 8 mM Na2HPO4, pH 7.4). The cell suspension was centrifuged two times at 3000× g for 10 min with subsequent aspiration in 20 mL of PBS buffer at 4 °C. […]
Competition binding experiments were carried out as follows: membranes (20 μg/well in a final volume of 0.2 mL binding buffer) were incubated with [^3H]-N^α-methylhistamine (2 nM), purchased from PerkinElmer (Waltham, MA, USA), and different concentrations of the respective test ligand. […] Non-specific binding was determined in the presence of the selectively acting histamine H3 receptor inverse agonist/antagonist pitolisant (10 μM). […] Liquid scintillation counting using a PerkinElmer MicroBeta Trilux scintillation counter was used to determine the amount of radioactivity collected on the filter used in the current experiment. […]

[2] = target: T2, hD3R (Homo sapiens, UniProt P35462); experiment: Radioligand displacement assay at dopamine D3R ([3H]-spiperone, CHO-K1 cells); format: binding; details: CHO-K1 cells stably expressing human D3R, read-out: Ki (n), D3R
T2 construct: expressed in transfected cells; host or cells: CHO-K1
T2 sequence (P35462 whole entry): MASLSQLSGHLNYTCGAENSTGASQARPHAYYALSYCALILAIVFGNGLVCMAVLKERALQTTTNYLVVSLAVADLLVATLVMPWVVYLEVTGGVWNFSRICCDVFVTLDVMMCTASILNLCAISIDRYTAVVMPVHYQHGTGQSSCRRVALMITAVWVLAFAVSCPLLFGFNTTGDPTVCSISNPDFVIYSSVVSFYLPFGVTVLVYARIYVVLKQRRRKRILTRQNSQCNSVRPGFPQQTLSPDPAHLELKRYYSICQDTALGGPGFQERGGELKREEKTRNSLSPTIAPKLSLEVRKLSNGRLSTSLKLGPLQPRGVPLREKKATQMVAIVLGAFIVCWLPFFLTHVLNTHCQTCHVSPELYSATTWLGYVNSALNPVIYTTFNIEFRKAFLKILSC
Protocol: To determine the human D3R affinity, compounds and reference substances were tested in a [^3H]-spiperone competition binding assay as described by Bautista-Aguilera et al.. The assay was conducted with membrane preparations of CHO-K1 cells stably expressing hD3R. Membrane fractions (20 μg/well in a final volume of 0.2 mL binding buffer) were incubated with [^3H]-spiperone (0.2 nM) and the test compounds for 120 min at r.t. under shaking. Assays were run in triplicates with at least six appropriate concentrations between 0.1 nM and 100 µM for the test compound. Nonspecific binding was determined in the presence of 10 µM haloperidol.

[3] = target: T3, hH1R (Homo sapiens, UniProt P35367); experiment: [3H]-pyrilamine displacement assay at histamine H1R (CHO-K1 cells); format: binding; details: CHO-K1 cells stably expressing human H1R; [3H]-pyrilamin; read-out: Ki (n), H1R
T3 construct: expressed in transfected cells; host or cells: CHO-K1
T3 sequence (P35367 whole entry): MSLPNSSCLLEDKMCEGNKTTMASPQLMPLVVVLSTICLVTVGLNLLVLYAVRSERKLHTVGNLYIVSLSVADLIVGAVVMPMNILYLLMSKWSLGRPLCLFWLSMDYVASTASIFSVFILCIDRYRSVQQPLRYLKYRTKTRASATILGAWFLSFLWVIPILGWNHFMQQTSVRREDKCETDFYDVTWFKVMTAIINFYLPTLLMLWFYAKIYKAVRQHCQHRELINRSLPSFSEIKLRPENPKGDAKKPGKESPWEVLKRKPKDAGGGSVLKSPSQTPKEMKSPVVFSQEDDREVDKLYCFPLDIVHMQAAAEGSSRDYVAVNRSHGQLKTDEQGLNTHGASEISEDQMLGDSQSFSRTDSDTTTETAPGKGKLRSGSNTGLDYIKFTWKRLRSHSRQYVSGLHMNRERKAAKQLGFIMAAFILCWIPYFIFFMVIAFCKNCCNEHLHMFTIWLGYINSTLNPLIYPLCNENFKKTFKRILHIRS
Protocol: To determine the human H1R affinity, compounds and reference substances were tested in a [^3H]-pyrilamine displacement assay. The assay was conducted with membrane preparations of CHO-K1 cells stably expressing hH1R. Transfection, cell culture, and membrane preparation were described in detail by Smit and colleagues. For the competition binding assay, membrane fractions (40 μg/well in a final volume of 0.2 mL binding buffer) were incubated with [^3H]-pyrilamine (1 nM) and the test compounds in different concentrations for 120 min at r.t. under shaking. The experimental assays were carried out in triplicate with at least six appropriate concentrations between 0.1 nM and 100 μM for the test compounds. Nonspecific binding was evaluated in the presence of the standard H1R antagonist chlorpheniramine hydrogen maleate at a concentration of 10 µM. The following steps were performed as described before.

[4] = target: T4, hD1R (Homo sapiens, UniProt P21728); experiment: Radioligand displacement assay at dopamine D1R ([3H]-SCH23390, HEK293 cells); format: binding; details: HEK293 cells stably expressing human D1R, read-out: Ki (n), D1R
T4 construct: expressed in transfected cells; host or cells: HEK293
T4 sequence (P21728 whole entry): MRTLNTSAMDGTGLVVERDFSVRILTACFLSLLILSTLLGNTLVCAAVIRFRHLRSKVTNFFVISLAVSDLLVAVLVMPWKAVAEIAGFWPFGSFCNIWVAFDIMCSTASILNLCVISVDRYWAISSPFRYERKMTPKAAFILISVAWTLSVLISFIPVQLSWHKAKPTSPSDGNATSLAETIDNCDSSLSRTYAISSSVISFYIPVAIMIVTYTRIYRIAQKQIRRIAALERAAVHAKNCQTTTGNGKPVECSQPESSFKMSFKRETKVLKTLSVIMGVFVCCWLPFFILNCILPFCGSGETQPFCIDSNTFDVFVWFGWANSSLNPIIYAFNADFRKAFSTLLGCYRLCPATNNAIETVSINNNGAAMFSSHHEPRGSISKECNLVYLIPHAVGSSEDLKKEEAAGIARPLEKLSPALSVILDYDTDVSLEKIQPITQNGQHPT
Protocol: hD1R affinity was determined according to the procedure of hD3R [43]. Membrane preparations of HEK293 cells stably expressing the hD1R were used with 20 µg/well. [^3H]-SCH23390 was used as radioligand in a concentration of 0.3 nM. Nonspecific binding was determined in the presence of 100 µM fluphenazine. The following steps were performed as describedbefore.

[5] = target: T5, hH4R (Homo sapiens, UniProt P04899+Q9H3N8); experiment: [3H]-histamine competition binding assay at histamine H4R (Sf9 membranes); details: Sf9 cell membranes expressing human H4R with Gαi2 and Gβ1γ2, read-out: Ki (n), H4R
T5 construct: expressed in transfected cells; host or cells: Sf9 insect cells
T5 sequence (Q9H3N8+P04899 fused): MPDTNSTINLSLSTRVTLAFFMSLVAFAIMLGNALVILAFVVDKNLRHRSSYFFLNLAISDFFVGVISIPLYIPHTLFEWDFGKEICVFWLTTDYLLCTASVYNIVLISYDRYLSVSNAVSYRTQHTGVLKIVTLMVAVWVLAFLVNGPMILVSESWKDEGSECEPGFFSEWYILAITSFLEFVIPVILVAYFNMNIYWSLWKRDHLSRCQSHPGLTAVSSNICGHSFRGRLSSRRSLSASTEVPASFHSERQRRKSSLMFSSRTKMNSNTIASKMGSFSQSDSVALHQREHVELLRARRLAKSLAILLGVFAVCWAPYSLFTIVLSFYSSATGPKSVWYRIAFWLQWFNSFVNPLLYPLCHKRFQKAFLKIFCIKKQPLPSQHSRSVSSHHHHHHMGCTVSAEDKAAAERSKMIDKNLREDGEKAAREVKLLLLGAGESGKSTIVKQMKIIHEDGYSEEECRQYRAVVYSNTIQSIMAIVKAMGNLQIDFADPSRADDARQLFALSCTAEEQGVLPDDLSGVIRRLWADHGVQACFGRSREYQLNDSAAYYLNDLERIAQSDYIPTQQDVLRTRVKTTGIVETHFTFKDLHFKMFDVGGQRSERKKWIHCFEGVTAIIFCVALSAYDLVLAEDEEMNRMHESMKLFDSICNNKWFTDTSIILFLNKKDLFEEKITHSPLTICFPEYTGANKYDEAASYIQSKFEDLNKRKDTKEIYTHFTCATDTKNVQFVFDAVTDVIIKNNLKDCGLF
Protocol: To determine the human H4R affinity, compounds and reference structures were examined in a [^3H]-histamine dihydrochloride competition binding assay. Cell culture and membrane preparation of Sf9 cells co-expressing hH4R-Gαi2 fusion protein with Gβ1γ2 was prepared as described by Schneider and co-workers.
The competition binding assay has been performed as described previously by Sander, Kottke, and Schwed from the Stark Lab. Cell membranes were sedimented by 3 min centrifugation at 25 °C and […] and were resuspended in binding buffer. Competition binding experiments were carried out by incubating the membranes (40 µg/0.2 mL binding buffer) and [^3H]-histamine dihydrochloride (10 nM) with test compounds for 60 min at r.t. Assays were run in triplicates with four to seven appropriate concentrations between 0.1 nM and 100 µM for the test compound. Nonspecific binding was determined in the presence of 100 µM JNJ7777120. The following steps were performed as described before.

[6] = tested on: H3R; design: method as in earlier work; details: ref 19 (Vanover et al.); cited from earlier work
[7] = tested on: D3R; design: method as in earlier work; details: ref 19 (Vanover et al.); cited from earlier work
[8] = tested on: H1R; design: method as in earlier work; details: ref 19 (Vanover et al.); cited from earlier work
[9] = tested on: D1R; design: method as in earlier work; details: ref 19 (Vanover et al.); cited from earlier work

Row | Compound | Ki [1] | Ki [2] [nM] | Ki [3] [nM] | Ki [4] [nM] | Ki [5] [nM] | inhibition at 10 µM, H3R [6] | inhibition at 10 µM, D3R [7] | inhibition at 10 µM, H1R [8] | inhibition at 10 µM, D1R [9]
1 | CN1CCC(N(Cc2ccc(F)cc2)C(=O)NCc2ccc(OCCCN3CCCCC3)cc2)CC1 [ST-2300, 1-(4-Fluorobenzyl)-1-(1-methylpiperidin-4-yl)-3-{4-[3-(piperidin-1-yl)propoxy]benzyl}urea] | 14 nM and 14.4 nM | > 10000 | > 5000 | > 10000 | > 1000 |  |  |  | 
2 | CC(C)COc1ccc(CNC(=O)N(Cc2ccc(F)cc2)C2CCN(C)CC2)cc1 [Pimavanserin, reference compound] |  |  |  |  |  | inhibition at 10 µM: <50% ^a | inhibition at 10 µM: 60% ^a | inhibition at 10 µM: <50% ^a | inhibition at 10 µM: <50% ^a
